Biological target: Glutamate receptor ionotropic, NMDA 2C (Rattus norvegicus, UniProt Q00961)
Assay: Ability to inhibit [3H]CGS-19,755 binding to NMDA receptors.

Sequence of Glutamate receptor ionotropic, NMDA 2C (Q00961 whole entry): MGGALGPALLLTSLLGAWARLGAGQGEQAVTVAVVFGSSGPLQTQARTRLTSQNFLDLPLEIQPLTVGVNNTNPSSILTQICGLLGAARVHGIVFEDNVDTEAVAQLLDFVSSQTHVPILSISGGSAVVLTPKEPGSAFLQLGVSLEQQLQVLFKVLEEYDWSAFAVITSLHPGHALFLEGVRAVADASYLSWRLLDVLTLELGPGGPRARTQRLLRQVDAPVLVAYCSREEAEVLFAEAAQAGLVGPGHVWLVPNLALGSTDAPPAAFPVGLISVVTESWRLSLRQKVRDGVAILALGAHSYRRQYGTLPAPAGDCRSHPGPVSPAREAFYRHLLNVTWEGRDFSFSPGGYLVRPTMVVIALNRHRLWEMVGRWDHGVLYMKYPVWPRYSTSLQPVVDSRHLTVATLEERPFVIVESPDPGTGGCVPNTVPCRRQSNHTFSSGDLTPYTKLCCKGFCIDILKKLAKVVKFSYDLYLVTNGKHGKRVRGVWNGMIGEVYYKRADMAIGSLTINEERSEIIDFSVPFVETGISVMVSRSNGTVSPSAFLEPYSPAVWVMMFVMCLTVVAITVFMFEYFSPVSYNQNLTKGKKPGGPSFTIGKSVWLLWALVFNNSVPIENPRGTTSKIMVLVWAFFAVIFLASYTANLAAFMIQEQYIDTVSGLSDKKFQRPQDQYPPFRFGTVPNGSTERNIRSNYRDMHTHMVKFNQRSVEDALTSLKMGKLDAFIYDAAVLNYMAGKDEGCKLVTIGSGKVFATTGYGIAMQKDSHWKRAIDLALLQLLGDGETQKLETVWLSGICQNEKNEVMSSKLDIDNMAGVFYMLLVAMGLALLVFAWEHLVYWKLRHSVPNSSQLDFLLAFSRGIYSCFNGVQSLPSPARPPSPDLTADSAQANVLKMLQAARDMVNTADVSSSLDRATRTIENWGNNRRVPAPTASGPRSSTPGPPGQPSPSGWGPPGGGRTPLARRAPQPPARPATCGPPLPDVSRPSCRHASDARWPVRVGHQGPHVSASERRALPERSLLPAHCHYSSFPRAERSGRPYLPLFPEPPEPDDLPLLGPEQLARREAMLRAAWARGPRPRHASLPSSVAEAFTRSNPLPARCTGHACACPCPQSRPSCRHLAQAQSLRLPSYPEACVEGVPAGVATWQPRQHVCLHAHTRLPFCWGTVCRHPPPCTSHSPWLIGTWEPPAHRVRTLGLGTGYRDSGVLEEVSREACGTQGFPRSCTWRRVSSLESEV

IC50: > 7 µM
SMILES: C[C@H](C[C@H](N)C(=O)O)C(=O)O [2S,4R-4-METHYLGLUTAMATE]
